Measured values from patent publication US20060063783A1, “Sulphonylpiperidine derivatives containing an alkenyl or alkynyl moiety for use as matrix metalloproteinase inhibitors” (ASTRAZENECA AB, priority 2002, published 2006).

Target: T1, proTNFα convertase enzyme (TACE) (Homo sapiens, UniProt P78536)
T1 construct: a partially purified, isolated enzyme assay, the enzyme being obtained from the membranes of THP-1; endogenous in cells; host or cells: THP-1 cell membranes (partially purified, per Mohler et al. 1994 Nature 370:218-220)
T1 sequence (P78536 215-824): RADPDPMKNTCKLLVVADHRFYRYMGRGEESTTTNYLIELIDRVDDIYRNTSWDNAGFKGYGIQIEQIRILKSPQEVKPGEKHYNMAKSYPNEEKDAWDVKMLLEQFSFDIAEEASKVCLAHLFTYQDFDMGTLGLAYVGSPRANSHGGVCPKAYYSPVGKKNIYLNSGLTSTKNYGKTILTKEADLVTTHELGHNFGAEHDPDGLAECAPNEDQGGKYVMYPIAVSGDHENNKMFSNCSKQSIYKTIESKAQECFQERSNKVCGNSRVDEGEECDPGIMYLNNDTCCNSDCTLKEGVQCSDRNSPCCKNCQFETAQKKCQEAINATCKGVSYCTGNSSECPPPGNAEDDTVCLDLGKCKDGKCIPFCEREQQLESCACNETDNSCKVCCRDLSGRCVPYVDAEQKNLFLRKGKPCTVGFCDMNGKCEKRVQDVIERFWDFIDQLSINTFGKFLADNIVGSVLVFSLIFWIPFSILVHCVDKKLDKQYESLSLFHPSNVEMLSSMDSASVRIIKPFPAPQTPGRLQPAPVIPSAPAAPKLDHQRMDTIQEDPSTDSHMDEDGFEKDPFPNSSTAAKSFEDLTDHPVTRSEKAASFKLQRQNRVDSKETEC
Assay: Partially purified, isolated enzyme assay for proTNFα convertase (TACE), fluorescent peptide substrate
Assay type: biochemical
Conditions: 10 μM of compound; enzyme from membranes of THP-1
Experimental: Recombinant human proMMP13 may be expressed and purified as described by Knauper et al. [V. Knauper et al., (1996) The Biochemical Journal 271:1544-1550 (1996)]. […] Activity is determined by measuring the fluorescence at λex 328 nm and λem 393 nm. Percent inhibition is calculated as follows: % Inhibition is equal to the [Fluorescenceplus inhibitor−Fluorescencebackgrouud] divided by the [Fluorescenceminus inhibitor−Fluorescencebackground].
The ability of the compounds to inhibit proTNFα convertase enzyme (TACE) may be assessed using a partially purified, isolated enzyme assay, the enzyme being obtained from the membranes of THP-1 as described by K. M. Mohler et al., (1994) Nature 370:218-220. The purified enzyme activity and inhibition thereof is determined by incubating the partially purified enzyme in the presence or absence of test compounds using the substrate 4′,5′-Dimethoxy-fluoresceinyl Ser.Pro.Leu.Ala.Gln.Ala.Val.Arg.Ser.Ser.Ser.Arg.Cys(4-(3-succinimid-1-yl)-fluorescein)-NH2 in assay buffer (50 mM Tris HCl, pH 7.4 containing 0.1% (w/v) Triton X-100 and 2 mM CaCl2), at 26° C. for 4 hours. The amount of inhibition is determined as for MMP13 except λex 485 nm and λem 538 nm were used. […]

inhibition at 10 µM: 72%
Structure (SMILES): CC#CCOC1CCN(S(=O)(=O)CC(CCCc2ncccn2)N(O)C=O)CC1 (racemic) [compound 1, (R/S)-1-({[4-(But-2-ynyloxy)piperidin-1-yl]sulphonyl}methyl)-4-pyrimidin-2-ylbutyl(hydroxy)formamide]
